For assay [1], the target named is recombinant β-secretase (Homo sapiens, UniProt P56817). The assay can be described thus: β-secretase inhibitory activity against recombinant β-secretase. Particulars: for fold lower enzyme inhibitory potency: compared to 3a.
The test system of assay [2] is β-secretase in neuroblastoma cells. Particulars: Neuroblastoma cell.
In assay [3] the test system is transgenic AD mice. Particulars: cited from earlier work.

Chain of recombinant β-secretase (P56817 46-501): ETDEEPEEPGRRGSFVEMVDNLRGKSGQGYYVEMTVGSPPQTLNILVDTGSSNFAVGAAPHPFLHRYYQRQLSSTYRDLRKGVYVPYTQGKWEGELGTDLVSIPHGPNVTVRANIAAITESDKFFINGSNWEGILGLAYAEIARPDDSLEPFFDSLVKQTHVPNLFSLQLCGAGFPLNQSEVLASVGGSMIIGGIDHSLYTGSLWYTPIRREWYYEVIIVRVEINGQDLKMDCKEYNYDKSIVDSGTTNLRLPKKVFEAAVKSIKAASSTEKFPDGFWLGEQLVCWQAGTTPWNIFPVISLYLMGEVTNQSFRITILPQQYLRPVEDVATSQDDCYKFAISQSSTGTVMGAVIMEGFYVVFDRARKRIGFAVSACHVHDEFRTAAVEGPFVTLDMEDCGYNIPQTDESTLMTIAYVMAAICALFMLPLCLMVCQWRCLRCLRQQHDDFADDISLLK

As for `CN(C(=O)CC[C@@H](c1ccccc1)N1Cc2cc(Oc3ccccc3)ccc2N=C1N)C1CCCCC1` [3b], the “fold lower enzyme inhibitory potency” value in assay [1] is ~6 fold.

Regarding `CN(C(=O)OC[C@@H](c1ccccc1)N1Cc2cc(Oc3ccccc3)ccc2N=C1N)C1CCCCC1` [3c], the “fold loss of potency” value in assay [1] (compared to 3b) was ~5 fold.

For `CN(C(=O)OC[C@@H](C1CCCCC1)N1Cc2cc(Oc3ccccc3)ccc2N=C1N)C1CCCCC1` [3d], the fold improved potency in assay [1] (over 3c) was 20 fold.

Turning to `CN(C(=O)CC[C@@H](C1CCCOC1)N1Cc2cc(Oc3ccccc3)ccc2N=C1N)C1CCCCC1` (stereo partly shown) [3g], the “fold lower enzyme inhibitory potency” value in assay [1] is on record as ~5 fold.

`COCc1nc(CN(C(=O)CC[C@@H](C2CCCCC2)N2Cc3cc(Oc4ccccc4)ccc3N=C2N)C2CCCCC2)cs1` [4f]: in assay [1] (over 4b), the “fold improvement of enzyme activity” value is reported as ~6 fold.

`NC1=Nc2ccc(Oc3ccccc3)cc2CN1[C@@H](CCC(=O)N(Cc1cn[nH]c1)C1CCCCC1)C1CCCCC1` [4h] came in with an IC50 in assay [2] of 0.048 µM.

As to `COc1cccc(CNC[C@@H](O)[C@H](Cc2ccccc2)NC(=O)c2cc(C(=O)N[C@H](C)c3ccccc3)cc(N(C)S(C)(=O)=O)c2)c1` [GRL-8234], the “effect on cognitive function” value in assay [3] is on record as “rescued the decline of cognitive function”.

A word on the IC50: it is the midpoint of a concentration-inhibition curve. Low readings indicate greater potency in that assay, high ones weaker potency in that assay.
